Laboratory results from ChEMBL document CHEMBL4765377, “Design, synthesis, and evaluation of amphiphilic sofalcone derivatives as potent Gram-positive antibacterial agents” (Eur J Med Chem, 2020).
In brackets after ≈: the same amount, converted by molar mass.

Key:
[1] = test system: Staphylococcus aureus; assay: Antibacterial activity against methicillin-resistant Staphylococcus aureus N315 assessed as reduction in bacterial growth after 24 hrs by CLSI based broth micro dilution method; format: functional
[2] = test system: Staphylococcus aureus; assay: Antibacterial activity against methicillin-resistant Staphylococcus aureus NCTC10442 assessed as reduction in bacterial growth after 24 hrs by CLSI based broth micro dilution method; format: functional
[3] = test system: Escherichia coli; assay: Antibacterial activity against Escherichia coli ATCC 25922 assessed as reduction in bacterial growth after 24 hrs by CLSI based broth micro dilution method; format: functional
[4] = Hemolytic activity in rabbit RBC after 60 mins; format: ADME, cell-based, Oryctolagus cuniculus, Erythrocyte; conditions: rabbit red blood cells (erythrocytes)
[5] = test system: Staphylococcus aureus; assay: Antibacterial activity against Staphylococcus aureus ATCC 29213 assessed as reduction in bacterial growth after 24 hrs by CLSI based broth micro dilution method; format: functional
[6] = test system: Staphylococcus aureus; assay: Bactericidal activity against Staphylococcus aureus ATCC 29213 assessed as reduction in bacterial load at 2 time of MIC concentration preincubated for 240 mins followed by compound washout further subculturing and measured after 24 hrs by time-kill assay; format: functional; conditions: 4 h
[7] = test system: Staphylococcus aureus; assay: Antibacterial activity against Staphylococcus aureus ATCC 29213 infected in C57BL6 mouse assessed as reduction in bacterial load at 33.65 mmol/L, administered topically at 2 hrs interval for 3 days; format: functional; conditions: time 3 day
[8] = test system: Staphylococcus aureus; assay: Bactericidal activity against Staphylococcus aureus ATCC 29213 assessed as reduction in bacterial load at MIC concentration preincubated for 240 mins followed by compound washout further subculturing and measured after 24 hrs by time-kill assay; format: functional; conditions: 4 h

Compound | MIC [1] | MIC [2] | MIC [3] | HC50 at 1 h [4] | MIC [5] | log(activity) [6] | log(activity) [7] | log(activity) [8]
CC(C)=CCOc1ccc(/C=C/C(=O)c2ccc(OCC=C(C)C)cc2OCC(=O)O)cc1 [SOFALCONE] | 50 µg/mL (≈ 111 µM) | > 50 µg/mL | > 50 µg/mL | > 200 µg/mL | > 50 µg/mL | – | – | –
CC(C)=CCOc1ccc(/C=C/C(=O)c2ccc(OCC=C(C)C)cc2OCC(=O)N[C@@H](CCCNC(=N)N)C(N)=O)cc1 | 1.56 µg/mL (≈ 2.58 µM) | 3.13 µg/mL (≈ 5.17 µM) | 12.5 µg/mL (≈ 20.6 µM) | 78.7 µg/mL | 3.13 µg/mL (≈ 5.17 µM) | – | – | –
CC(C)=CCOc1ccc(/C=C/C(=O)c2ccc(OCC=C(C)C)cc2OCC(=O)NCCCN2CCCC2)cc1 | 3.13 µg/mL (≈ 5.58 µM) | 6.25 µg/mL (≈ 11.1 µM) | > 50 µg/mL | 53.4 µg/mL | 6.25 µg/mL (≈ 11.1 µM) | – | – | –
COC(=O)[C@H](Cc1c[nH]cn1)NC(=O)COc1cc(OCC=C(C)C)ccc1C(=O)/C=C/c1ccc(OCC=C(C)C)cc1 | – | – | > 50 µg/mL | > 200 µg/mL | > 50 µg/mL | – | – | –
CCCCN(CCCC)CCCNC(=O)COc1cc(OCC=C(C)C)ccc1C(=O)/C=C/c1ccc(OCC=C(C)C)cc1 | 6.25 µg/mL (≈ 10.1 µM) | 6.25 µg/mL (≈ 10.1 µM) | > 50 µg/mL | > 200 µg/mL | 12.5 µg/mL (≈ 20.2 µM) | – | – | –
CCN(CC)CCCNC(=O)COc1cc(OCC=C(C)C)ccc1C(=O)/C=C/c1ccc(OCC=C(C)C)cc1 | – | 6.25 µg/mL (≈ 11.1 µM) | > 50 µg/mL | 65.7 µg/mL | 6.25 µg/mL (≈ 11.1 µM) | – | – | –
COC(=O)[C@H](CCCNC(=N)N)NC(=O)COc1cc(OCC=C(C)C)ccc1C(=O)/C=C/c1ccc(OCC=C(C)C)cc1 | 1.56 µg/mL (≈ 2.51 µM) | 1.56 µg/mL (≈ 2.51 µM) | 50 µg/mL (≈ 80.5 µM) | 70 µg/mL | 1.56 µg/mL (≈ 2.51 µM) | – | – | –
CC(C)=CCOc1ccc(/C=C/C(=O)c2ccc(OCC=C(C)C)cc2OCC(=O)N[C@@H](CCCNC(=N)N)C(=O)NCCCN)cc1 | – | – | 6.25 µg/mL (≈ 9.43 µM) | 277 µg/mL | – | – | – | –
CC(C)=CCOc1ccc(/C=C/C(=O)c2ccc(OCC=C(C)C)cc2OCC(=O)NCCCN(C)C)cc1 | 12.5 µg/mL (≈ 23.4 µM) | 12.5 µg/mL (≈ 23.4 µM) | > 50 µg/mL | 78.2 µg/mL | 12.5 µg/mL (≈ 23.4 µM) | – | – | –
CN[C@H](CC(C)C)C(=O)N[C@H]1C(=O)N[C@@H](CC(N)=O)C(=O)N[C@H]2C(=O)N[C@H]3C(=O)N[C@H](C(=O)N[C@H](C(=O)O)c4cc(O)cc(O)c4-c4cc3ccc4O)[C@H](O)c3ccc(c(Cl)c3)Oc3cc2cc(c3O[C@@H]2O[C@H](CO)[C@@H](O)[C@H](O)[C@H]2O[C@H]2C[C@](C)(N)[C@H](O)[C@H](C)O2)Oc2ccc(cc2Cl)[C@H]1O [VANCOMYCIN] | 1.56 µg/mL (≈ 1.08 µM) | 1.56 µg/mL (≈ 1.08 µM) | – | – | 0.78 µg/mL (≈ 0.538 µM) | 1.1 | 4.16 | 1.1
O=C(N[C@H](CO)[C@H](O)c1ccc([N+](=O)[O-])cc1)C(Cl)Cl [CHLORAMPHENICOL] | – | – | 3.13 µg/mL (≈ 9.69 µM) | – | – | – | – | –
CC(C)=CCOc1ccc(/C=C/C(=O)c2ccc(OCC=C(C)C)cc2OCC(=O)NCCCN2CCN(C)CC2)cc1 | 6.25 µg/mL (≈ 10.6 µM) | 6.25 µg/mL (≈ 10.6 µM) | > 100 µg/mL | 36.5 µg/mL | 6.25 µg/mL (≈ 10.6 µM) | – | – | –
CCCNC(=O)COc1cc(OCC=C(C)C)ccc1C(=O)/C=C/c1ccc(OCC=C(C)C)cc1 | > 50 µg/mL | > 50 µg/mL | > 100 µg/mL | > 200 µg/mL | > 50 µg/mL | – | – | –
CC(C)=CCOc1ccc(/C=C/C(=O)c2ccc(OCC=C(C)C)cc2OCC(=O)NCCCNC(=N)N)cc1 | 1.56 µg/mL (≈ 2.84 µM) | 1.56 µg/mL (≈ 2.84 µM) | 25 µg/mL (≈ 45.6 µM) | 56.5 µg/mL | 1.56 µg/mL (≈ 2.84 µM) | – | – | –
CC(C)=CCOc1ccc(/C=C/C(=O)c2ccc(OCC=C(C)C)cc2OCC(=O)N[C@@H](CCCNC(=N)N)C(=O)NCCCN(C)C)cc1 | – | – | 25 µg/mL (≈ 36.2 µM) | 181 µg/mL | – | – | – | –
CC(C)=CCOc1ccc(/C=C/C(=O)c2ccc(OCC=C(C)C)cc2OCC(=O)NCCCN)cc1 | 1.56 µg/mL (≈ 3.08 µM) | 3.13 µg/mL (≈ 6.18 µM) | 50 µg/mL (≈ 98.7 µM) | 47 µg/mL | 3.13 µg/mL (≈ 6.18 µM) | – | – | –
COC(=O)[C@H](CCCNC(=N)N)NC(=O)[C@H](CCCNC(=N)N)NC(=O)COc1cc(OCC=C(C)C)ccc1C(=O)/C=C/c1ccc(OCC=C(C)C)cc1 | 3.13 µg/mL (≈ 4.03 µM) | 3.13 µg/mL (≈ 4.03 µM) | 12.5 µg/mL (≈ 16.1 µM) | 120 µg/mL | 3.13 µg/mL (≈ 4.03 µM) | – | – | –
